Results published in ChEMBL document CHEMBL2396648, “Potent suppression of c-di-GMP synthesis via I-site allosteric inhibition of diguanylate cyclases with 2'-F-c-di-GMP” (Bioorg Med Chem, 2013).
Calls of active or inactive are those of the source. No cut-off for these calls is given here.

How the values were obtained:
[1] = biological target: T1, Cyclic di-GMP phosphodiesterase RocR (Pseudomonas aeruginosa (strain ATCC 15692 / PAO1 / 1C / PRS 101 / LMG12228), UniProt Q9HX69); assay: Competitive binding affinity to Pseudomonas aeruginosa PAO1 His6-tagged RocR expressed in Escherichia coli BL21 (DE3) after 5 mins in presence of [32P]-c-di-GMP
T1 sequence (Q9HX69 whole entry): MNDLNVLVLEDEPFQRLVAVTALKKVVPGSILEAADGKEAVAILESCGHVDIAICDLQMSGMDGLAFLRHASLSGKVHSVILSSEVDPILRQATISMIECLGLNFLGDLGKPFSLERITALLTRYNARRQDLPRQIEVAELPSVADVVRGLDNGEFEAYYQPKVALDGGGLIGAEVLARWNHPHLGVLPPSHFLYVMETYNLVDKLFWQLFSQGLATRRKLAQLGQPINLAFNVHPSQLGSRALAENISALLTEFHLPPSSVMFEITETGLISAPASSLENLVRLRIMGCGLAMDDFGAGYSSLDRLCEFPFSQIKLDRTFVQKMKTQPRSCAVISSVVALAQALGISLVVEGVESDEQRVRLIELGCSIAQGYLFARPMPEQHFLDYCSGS

[2] = Competitive binding affinity to Pseudomonas aeruginosa Alg44 PilZ domain after 5 mins in presence of [32P]-c-di-GMP
[3] = Competitive binding affinity to Pseudomonas aeruginosa WspR after 5 mins in presence of [32P]-c-di-GMP
[4] = system: Pseudomonas aeruginosa PA14; assay: Inhibition of Pseudomonas aeruginosa PA14 PvrR using [32P]-GTP as substrate at 100 uM after 120 mins by thin layer chromatographic analysis
[5] = system: Pseudomonas aeruginosa PA14; assay: Inhibition of Pseudomonas aeruginosa PA14 diguanylate cyclase PA1107 using [32P]-GTP as substrate at 100 uM after 120 mins by thin layer chromatographic analysis
[6] = biological target: T2, Cyclic di-GMP phosphodiesterase RocR (Pseudomonas aeruginosa (strain ATCC 15692 / PAO1 / 1C / PRS 101 / LMG12228)) (UniProt Q9HX69); assay: Inhibition of Pseudomonas aeruginosa PAO1 His6-tagged RocR expressed in Escherichia coli BL21 (DE3) using [32P]-GTP as substrate at 100 uM after 120 mins by thin layer chromatographic analysis
T2 sequence (whole entry): T1 sequence (Q9HX69 whole entry)

[7] = system: Pseudomonas aeruginosa; assay: Inhibition of Pseudomonas aeruginosa WspR using [32P]-GTP as substrate at 100 uM after 120 mins by thin layer chromatographic analysis
[8] = Allosteric inhibition of Pseudomonas aeruginosa WspR using [32P]-GTP as substrate measured for 1 hr by thin layer chromatographic analysis

Compound: Nc1nc2c(ncn2[C@@H]2O[C@@H]3CO[P@](=O)(O)O[C@H]4[C@@H](O)[C@H](n5cnc6c(=O)[nH]c(N)nc65)O[C@@H]4CO[P@](=O)(O)O[C@H]3[C@H]2O)c(=O)[nH]1
- IC50 [1]: 0.02 µM

Compound: Nc1nc2c(ncn2[C@H]2C[C@@H]3OP(=O)(O)OC[C@H]4O[C@@H](n5cnc6c(=O)[nH]c(N)nc65)C[C@@H]4OP(=O)(O)OC[C@H]3O2)c(=O)[nH]1
- IC50 [2]: 13.4 µM
- IC50 [3]: > 100 µM
- IC50 [1]: 0.02 µM

Compound: Nc1nc2c(ncn2[C@@H]2O[C@@H]3COP(=O)(O)O[C@H]4[C@@H](O)[C@H](n5cnc6c(=O)[nH]c(N)nc65)O[C@@H]4COP(=O)(O)O[C@H]3[C@H]2O)c(=O)[nH]1
- IC50 [2]: 7.69 µM
- IC50 [3]: 48.9 µM
- inhibition [4]: inactive
- inhibition [5]: Active
- inhibition [6]: Active
- inhibition [7]: Active
- Ki [8]: 15.4 µM

Compound: Nc1nc2c(ncn2[C@@H]2O[C@@H]3COP(=O)(O)O[C@H]4[C@@H](F)[C@H](n5cnc6c(=O)[nH]c(N)nc65)O[C@@H]4COP(=O)(O)O[C@H]3[C@H]2F)c(=O)[nH]1
- IC50 [2]: 3.12 µM
- IC50 [3]: 11 µM
- IC50 [1]: 0.72 µM
- inhibition [4]: inactive
- inhibition [5]: Active
- inhibition [6]: Active
- inhibition [7]: Active
- Ki [8]: 12.6 µM

Compound: CO[C@@H]1[C@@H]2OP(=O)(O)OC[C@H]3O[C@@H](n4cnc5c(=O)[nH]c(N)nc54)[C@H](OC)[C@@H]3OP(=O)(O)OC[C@H]2O[C@H]1n1cnc2c(=O)[nH]c(N)nc21
- IC50 [2]: > 100 µM
- IC50 [3]: > 100 µM
- IC50 [1]: 6.41 µM
